Source: patent US20070128217A1 (priority 2003, published 2007)

What was measured:
[1] = tested on: rabbit serum obtained by immunizing a rabbit with the SARS-CoV strain Frankfurt 1; assay type: binding; parameters: Binding of a rabbit serum to linear peptides / Binding of a rabbit serum to looped peptides / Rabbit serum linear peptides / Rabbit serum looped peptides / Binding of a rabbit serum to linear peptides of protein N of SARS-CoV Urbani (Rabbit serum linear peptides) / Binding of a rabbit serum to looped/cyclic peptides of protein N of SARS-CoV Urbani (Rabbit serum looped peptides): unit not given here
[2] = tested on: control sera (pooled serum of ten healthy LUMC hospital workers; commercial negative donor pooled serum from the Dutch bloodbank); assay type: binding, human; parameters: Binding of Control serum LUMC to linear peptides / Binding of Control serum Blood-bank to linear peptides / Binding of Control serum LUMC to looped peptides / Binding of Control Serum Blood-Bank to Looped peptides / Binding of Control serum LUMC to linear peptides of the protein M of SARS-CoV Urbani / Binding of Control serum Blood-bank to linear peptides of the protein M of SARS-CoV Urbani / Binding of Control serum LUMC to looped peptides of the protein M of SARS-CoV Urbani / Binding of Control Serum Blood-Bank to Looped peptides of the protein M of SARS-CoV Urbani: unit not given here
[3] = tested on: antibodies in sera from SARS patients (sera 1a, 1b, 2, 6, 37, 62, London, SARS-yellow, SARS-green); assay type: binding, human; parameters: Binding of serum 6 to linear peptides of protein X1 of SARS-CoV Urbani / Binding of serum 37 to linear peptides of protein X1 of SARS-CoV Urbani / Binding of serum 6 to looped/cyclic peptide (PEPSCAN-ELISA) / Binding of serum 37 to looped/cyclic peptide (PEPSCAN-ELISA) / Binding of serum 37 to looped/cyclic peptides of protein X1 of SARS-CoV Urbani / Binding of serum 6 to linear peptides of protein X2 / Binding of serum 37 to linear peptides of protein X2 / Binding of serum 37 to looped/cyclic peptides of protein X2 of SARS-CoV Urbani / Binding of serum 6 to linear peptides of protein M of SARS-CoV Urbani / Binding of serum 37 to linear peptides of protein M of SARS-CoV Urbani / Binding of serum 6 to looped/cyclic peptides of protein M of SARS-CoV Urbani / Binding of serum 37 to looped/cyclic peptides of protein M of SARS-CoV Urbani / Binding of serum 6 to linear peptides of protein X3 of SARS-CoV Urbani / Binding of serum 37 to linear peptides of protein X3 of SARS-CoV Urbani / Binding of serum 37 to looped/cyclic peptides of protein X3 of SARS-CoV Urbani / Binding of serum 6 to linear peptides of protein X4 of SARS-CoV Urbani / Binding of serum 37 to linear peptides of protein X4 of SARS-CoV Urbani / Binding of serum 37 to looped/cyclic peptides of protein X4 of SARS-CoV Urbani / Binding of serum 6 to linear peptides of protein X5 of SARS-CoV Urbani / Binding of serum 37 to linear peptides of protein X5 of SARS-CoV Urbani / Binding of serum 37 to looped/cyclic peptides of protein X5 of SARS-CoV Urbani / Binding of serum 6 to linear peptides of protein N of SARS-CoV Urbani / Binding of serum 37 to linear peptides of protein N of SARS-CoV Urbani / Binding of serum 6 to linear peptide (PEPSCAN-ELISA) / Binding of serum 1a to looped/cyclic peptides of protein N of SARS-CoV Urbani / Binding of serum 1b to looped/cyclic peptides of protein N of SARS-CoV Urbani / Binding of serum 2 to looped/cyclic peptides of protein N of SARS-CoV Urbani / Binding of serum 6 to looped/cyclic peptides of protein N of SARS-CoV Urbani / Binding of serum 37 to looped/cyclic peptides of protein N of SARS-CoV Urbani / Binding of serum 62 to looped/cyclic peptides of protein N of SARS-CoV Urbani / Binding of serum London to looped/cyclic peptides of protein N of SARS-CoV Urbani / Binding of serum SARS-green to looped/cyclic peptides of protein N of SARS-CoV Urbani: unit not given here

Sequence	Binding of a rabbit serum to linear peptides [1]	Binding of a rabbit serum to looped peptides [1]	Binding of Control Serum Blood-Bank to Looped peptides [2]	Binding of Control serum Blood-bank to linear peptides [2]	Binding of Control serum LUMC to linear peptides [2]	Binding of Control serum LUMC to looped peptides [2]	Binding of serum 1a to looped/cyclic peptides of protein X2 of SARS-CoV Urbani [3]	Binding of serum 1b to looped/cyclic peptides of protein X2 of SARS-CoV Urbani [3]	Binding of serum 2 to looped/cyclic peptides of protein X2 of SARS-CoV Urbani [3]	Binding of serum 6 to looped/cyclic peptides of protein X2 of SARS-CoV Urbani [3]	Recognition of the peptide by sera of SARS-CoV infected individuals, and form (linear, looped/cyclic) in which it is recognized [3]	Binding of serum 1a to looped/cyclic peptide (PEPSCAN-ELISA) [3]	Binding of serum 1b to looped/cyclic peptide (PEPSCAN-ELISA) [3]	Binding of serum 2 to looped/cyclic peptide (PEPSCAN-ELISA) [3]	Binding of serum 6 to looped/cyclic peptide (PEPSCAN-ELISA) [3]	Binding of serum 37 to looped/cyclic peptide (PEPSCAN-ELISA) [3]	Binding of serum 62 to looped/cyclic peptide (PEPSCAN-ELISA) [3]	Binding of serum London to looped/cyclic peptide (PEPSCAN-ELISA) [3]	Binding of serum SARS-green to looped/cyclic peptide (PEPSCAN-ELISA) [3]	Binding of serum SARS-yellow to looped/cyclic peptide (PEPSCAN-ELISA) [3]	other results
KYTQSTALQELLIQQ	0.4	0.4	0.9	0.6	0.5	1.0	0.8	1.0	0.7	0.7	–	–	–	–	–	–	–	–	–	–	Binding of serum 1a to linear peptides of protein X2 [3]: 0.7; Binding of serum 1b to linear peptides of protein X2 [3]: 0.6; Binding of serum 2 to linear peptides of protein X2 [3]: 0.4; Binding of serum 6 to linear peptides of protein X2 [3]: 0.5; Binding of serum 37 to linear peptides of protein X2 [3]: 0.6; Binding of serum 37 to looped/cyclic peptides of protein X2 of SARS-CoV Urbani [3]: 0.8; Binding of serum 62 to linear peptides of protein X2 [3]: 0.6; Binding of serum 62 to looped/cyclic peptides of protein X2 of SARS-CoV Urbani [3]: 1.0; Binding of serum London to linear peptides of protein X2 [3]: 0.5; Binding of serum London to looped/cyclic peptides of protein X2 of SARS-CoV Urbani [3]: 0.5; Binding of serum SARS-green to linear peptides of protein X2 [3]: 0.6; Binding of serum SARS-green to looped/cyclic peptides of protein X2 of SARS-CoV Urbani [3]: 0.9; Binding of serum SARS-yellow to linear peptides of protein X2 [3]: 0.6; Binding of serum SARS-yellow to looped/cyclic peptides of protein X2 of SARS-CoV Urbani [3]: 0.8
LACLCKHKKVSTNLC	0.3	0.3	0.3	0.8	0.7	0.4	0.3	0.3	0.2	0.2	recognized in linear form	–	–	–	–	–	–	–	–	–	Binding of serum 37 to looped/cyclic peptides of protein X2 of SARS-CoV Urbani [3]: 0.3; Binding of serum 62 to looped/cyclic peptides of protein X2 of SARS-CoV Urbani [3]: 0.4; Binding of serum London to looped/cyclic peptides of protein X2 of SARS-CoV Urbani [3]: 0.2; Binding of serum SARS-green to looped/cyclic peptides of protein X2 of SARS-CoV Urbani [3]: 0.2; Binding of serum SARS-yellow to looped/cyclic peptides of protein X2 of SARS-CoV Urbani [3]: 0.3
LALYKGFQFICNLLL	0.2	0.6	0.6	0.6	0.5	0.6	–	–	–	–	–	0.5	0.3	0.4	1.4	0.5	0.5	1.4	0.2	0.5	Binding of serum 1a to linear peptides of protein X1 of SARS-CoV Urbani [3]: 0.7; Binding of serum 1b to linear peptides of protein X1 of SARS-CoV Urbani [3]: 0.5; Binding of serum 2 to linear peptides of protein X1 of SARS-CoV Urbani [3]: 0.5; Binding of serum 6 to linear peptides of protein X1 of SARS-CoV Urbani [3]: 0.4; Binding of serum 37 to linear peptides of protein X1 of SARS-CoV Urbani [3]: 0.5; Binding of serum 62 to linear peptides of protein X1 of SARS-CoV Urbani [3]: 0.6; Binding of serum London to linear peptides of protein X1 of SARS-CoV Urbani [3]: 0.2; Binding of serum SARS-green to linear peptides of protein X1 of SARS-CoV Urbani [3]: 0.2; Binding of serum SARS-yellow to linear peptides of protein X1 of SARS-CoV Urbani [3]: 0.5
LAVFQSATKIIALNK	0.1	0.7	0.5	0.7	0.6	0.6	–	–	–	–	–	0.5	0.4	0.5	0.6	0.5	0.6	0.7	0.3	0.5	Binding of serum 1a to linear peptides of protein X1 of SARS-CoV Urbani [3]: 0.7; Binding of serum 1b to linear peptides of protein X1 of SARS-CoV Urbani [3]: 0.5; Binding of serum 2 to linear peptides of protein X1 of SARS-CoV Urbani [3]: 0.5; Binding of serum 6 to linear peptides of protein X1 of SARS-CoV Urbani [3]: 0.6; Binding of serum 37 to linear peptides of protein X1 of SARS-CoV Urbani [3]: 0.6; Binding of serum 62 to linear peptides of protein X1 of SARS-CoV Urbani [3]: 0.5; Binding of serum London to linear peptides of protein X1 of SARS-CoV Urbani [3]: 0.2; Binding of serum SARS-green to linear peptides of protein X1 of SARS-CoV Urbani [3]: 0.3; Binding of serum SARS-yellow to linear peptides of protein X1 of SARS-CoV Urbani [3]: 0.4
LCKHKKVSTNLCTHS	0.3	0.3	0.3	0.8	0.7	0.4	–	–	–	–	recognized in linear form	–	–	–	–	–	–	–	–	–	–
LCWKCKSKNPLLYDA	0.3	0.8	0.8	0.7	0.7	0.8	–	–	–	–	recognized in linear form	0.8	0.5	0.7	0.8	0.7	0.8	0.3	0.3	0.7	–
